Measurements: US8809283B2, “Proteasome inhibitors and uses thereof” (Natuderm, LLC, priority 2005, dated 2014)
Like-named read-outs stand apart in the source and are kept apart here.

Columns and labels:
[1] = target: purified prokaryotic 20S proteasome (Methanosarcina thermophila, UniProt Q9P992); assay: Chymotrypsin-like activity of purified 20S proteasome (fluorogenic substrate Suc-Leu-Leu-Val-Tyr-AMC); format: biochemical; conditions: for inhibition at 100 µM: read-out: inhibition of proteasomal chymotrypsin-like activity
Sequence of purified prokaryotic 20S proteasome (Q9P992 10-210): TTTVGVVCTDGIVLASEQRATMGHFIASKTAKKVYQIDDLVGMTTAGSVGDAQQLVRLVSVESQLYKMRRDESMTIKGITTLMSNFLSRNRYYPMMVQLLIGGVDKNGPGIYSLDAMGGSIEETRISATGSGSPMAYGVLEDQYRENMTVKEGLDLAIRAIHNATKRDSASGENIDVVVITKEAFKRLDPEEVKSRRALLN
Sequence of purified prokaryotic 20S proteasome (Q59565 whole entry, further chain): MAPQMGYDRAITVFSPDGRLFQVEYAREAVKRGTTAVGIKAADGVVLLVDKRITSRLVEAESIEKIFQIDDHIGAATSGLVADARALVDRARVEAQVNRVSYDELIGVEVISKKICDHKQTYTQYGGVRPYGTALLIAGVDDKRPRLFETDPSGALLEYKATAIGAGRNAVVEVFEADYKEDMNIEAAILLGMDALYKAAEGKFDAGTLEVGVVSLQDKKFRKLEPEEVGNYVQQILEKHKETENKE
Experimental: This example describes the how to analyze the inhibitory effect of isolated fractions of mate tea in vitro, using purified 20S proteasome. The chymotrypsin-like activity of purified 20S proteasome was measured as previously described (Nam et al., (2001) J. Biol. Chem. 276, 13322-13330). Briefly, purified prokaryotic 20S proteasome (0.5 μg) was incubated with 20 μM fluorogenic peptide substrate, Suc-Leu-Leu-Val-Tyr-AMC for 30 min at 37° C. in 100 μl of assay buffer (50 mM Tris-HCl, pH 7.5), with or without a mate tea fraction at indicated concentrations. After incubation, production of hydrolyzed 7-amido-4-methyl-coumarin (AMC) groups was measured using a multi-well plate VersaFluor™ Fluorometer with an excitation filter of 380 nm and an emission filter of 460 nm (Bio-Rad).
The quinic acid esters resemble the proteasome inhibitor (−)-epigallocatechin gallate [(−)-EGCG] in that they contain hydroxylated aromatic carboxylic acids esterified to a polyhydroxylated aliphatic ring (FIG. 3). Based upon this similarity, and the previous finding that epigallocatechin gallate is an inhibitor of proteasomes (Ren et al., (2000) Oncogene 19, 1419-1427; Nam et al., (2001) J. Biol. Chem. 276, 13322-13330)), the ability of fractions T-2, T-5, and T-6 to inhibit proteasome function was assessed. To determine the ability of quinic acid esters to inhibit proteasome activity, a fluorescent substrate activity assay was performed with purified 20S proteasome. Epigallocatechin gallate (EGCG, Sigma Chemical Company, St Louis, Mo.) was used as a positive control for proteasome inhibition. To ensure complete inhibition of the proteasome, 100 μM EGCG was used. The compound 3,5-dicaffeoylquinic acid (3,5-DCQ) was tested against proteasome activity in three different concentrations: 20, 100, and 200 μg/ml, which correspond to 37, 183, and 366 μM respectively (FIG. 4).

[2] = test system: SVR cells; assay: SVR cell proliferation assay; format: cell-based; conditions: 10 mg/ml, 72 hours exposure, Coulter Counter
Experimental: The filtered aqueous extract was lyophilized to a dry powder, which was dissolved in distilled water and analyzed by HPLC, and 5 fractions were collected. HPLC fractions were lyophilized. Each fraction was reconstituted into 10 mg/ml solutions, and the ability to inhibit proliferation of SVR cells was tested.
SVR cells (1×10^4) were plated for 24 hours in a 24-well plate. The media was then changed to DMEM containing purified extract at a concentration of 10 mg/ml. Cells were exposed to drug for 72 hours and were counted with a Coulter Counter (Coulter, Hialeah, Fla.) according to the method of Lamontagne et al (LaMontagne et al., (2000) Am. J. Pathol. 157, 1937-1945). […] In order to determine the component of mate tea responsible, the aqueous extract was fractionated by HPLC, and the ability of the fractions to inhibit SVR cell proliferation was assessed. […] The structures of T-2, T-5, and T-6 were elucidated by proton NMR and mass spectroscopy (FIG. 1). […] The NMR spectra of the compounds are shown below.

[3] = test system: Jurkat T cells; assay: Cell cycle analysis of Jurkat T cells by flow cytometry (propidium iodide); format: cell-based; conditions: for arrest of Jurkat cells in G2/M phase: 2 μg/ml for 24 h; for increase of G2/M population: 20 μg/ml for 24 h
Experimental: To investigate the inhibitory effect of the fractions on cell cycle, Jurkat cells exposed to each fraction were analyzed by flow cytometry. Cell cycle analysis based on DNA content was performed as described previously (See Nam et al., 2001). The cell cycle distribution is shown as the percentage of cells containing G1, S, G2, and M DNA judged by propidium iodide staining.
The proteasome-inhibitory potencies of 3,5-DCQ and neochlorogenic acid were identified as being associated with growth-inhibitory activity in vivo, based on treating Jurkat T cells with each compound at a concentration of 2 or 20 μg/ml for 24 h. After treatment, the cells were harvested and assayed by flow cytometry. […] In contrast, neochlorogenic acid at the same concentrations had no effects.

[4] = target: T1, 26S proteasome in Jurkat T cell extracts (Homo sapiens, UniProt P28074); assay: Proteasome chymotrypsin-like activity in Jurkat T cell extracts; format: biochemical; conditions: 60 min at 37° C.
T1 construct: Whole cell extracts (20 μg) of Jurkat T cells; endogenous in cells; host or cells: Jurkat T cells (whole cell extract)
T1 sequence (P28074 60-263): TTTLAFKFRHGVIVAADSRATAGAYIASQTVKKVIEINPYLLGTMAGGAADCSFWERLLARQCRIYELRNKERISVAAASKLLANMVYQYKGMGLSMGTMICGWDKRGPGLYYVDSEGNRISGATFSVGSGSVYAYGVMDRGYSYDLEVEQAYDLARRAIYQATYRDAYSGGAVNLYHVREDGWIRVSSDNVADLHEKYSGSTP
Experimental: This example describes the how to analyze the inhibitory effect of isolated fractions of mate tea in vivo, using cell extracts of the Jurkat cancer cell line. Whole cell extracts (20 μg) of Jurkat T cells were incubated for 60 min at 37° C. with 20 μM of fluorogenic peptide substrate Suc-Leu-Leu-Val-Tyr-AMC in […] of the assay buffer, with or without a mate tea fraction at indicated concentrations. The hydrolyzed AMCs were quantified as described above.
The abilities of 3,5-DCQ and neochlorogenic acid to inhibit the 26S proteasome activity in Jurkat cell extracts was tested.

[5] = test system: inositol-1,4,5-triphosphate 3 kinase (GgIP3K-A); assay: Inositol-1,4,5-triphosphate 3 kinase activity assay (Mayr et al.); format: biochemical; conditions: FIG. 6
Experimental: An assay was performed as described in Mayr et al., (2005) J. Biol. Chem. 280: 13229-13240, incorporated herein by reference. […] Inhibition of the kinase activity may be important in HIV.

[6] = at 100 μM, purified 20S proteasome
[7] = at 20 μg/ml (37 μM 3,5-DCQ; 56 μM neochlorogenic acid)
[8] = at 100 μg/ml (183 μM 3,5-DCQ; 282 μM neochlorogenic acid)

O=C(/C=C/c1ccc(O)c(O)c1)O[C@@H]1[C@H](O)C[C@@](O)(C(=O)O)C[C@H]1OC(=O)/C=C/c1ccc(O)c(O)c1 (stereo in doubt) [T-6, 3,4-Dicaffeoylquinic acid]
inhibition of proteasomal chymotrypsin-like activity [1, 6]: 40% | inhibition of SVR cell proliferation [2]: most potent inhibitory effects

O=C(C=Cc1ccc(O)c(O)c1)OC1CC(O)(C(=O)O)CC(OC(=O)C=Cc2ccc(O)c(O)c2)C1O (stereo not shown) [3,5-DCQ, 3,5-Dicaffeoylquinic acid]
inhibition at 100 µM [1, 6]: 60% | inhibition of SVR cell proliferation [2]: most potent inhibitory effects | arrest of Jurkat cells in G2/M phase [3]: very slight arrest | increase of G2/M population [3]: ~10% | inhibition at 20 µg/mL [4, 7]: ~50% | inhibition at 100 µg/mL [4, 8]: ~85%

CC(C)(C)c1cc(CCC(=O)OCC(COC(=O)CCc2cc(C(C)(C)C)c(O)c(C(C)(C)C)c2)(COC(=O)CCc2cc(C(C)(C)C)c(O)c(C(C)(C)C)c2)COC(=O)CCc2cc(C(C)(C)C)c(O)c(C(C)(C)C)c2)cc(C(C)(C)C)c1O [PTTC, Pentaerythritol tetrakis (3,5-di-tert-butyl-4-hydroxyhydrocinnamate), reference compound]
activity against proteasomes (qualitative) ([1]; used as a control, chymotrypsin-like proteasome activity (FIG. 5)): activity against proteasomes | inhibition of IP-3 kinase activity (qualitative) [5]: inhibit

O=C(C=Cc1ccc(O)c(O)c1)OC1CC(O)(C(=O)O)CC(O)C1O (stereo not shown) [neochlorogenic acid, 5-Caffeoylquinic acid]
inhibition at 100 µM [1]: 21% | inhibition of SVR cell proliferation [2]: most potent inhibitory effects | arrest of Jurkat cells in G2/M phase [3]: no effects | increase of G2/M population [3]: no effects | inhibition of 26S proteasome activity in Jurkat cell extracts [4, 7]: ~30% | inhibition of 26S proteasome activity in Jurkat cell extracts [4, 8]: ~75%
